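Growth conditions: 96-well plates. Treatment: test compound, 48 hours, 5 concentrations. Analysis: linear interpolation between bracketing concentrations; unreached endpoints set to highest concentration. GI50 marks 50% less growth.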 The source made the active and inactive calls. Rule as the data show it: active = GI50 up to about 1.1 µM and inactive = higher.
How the values were obtained:
Assay in all cases: inhibition of tumour cell growth, NCI panel, 48 h
786-0 = system: 786-0
A498 = system: A498
A549 = system: A549
CCRF-CEM = system: CCRF-CEM
COLO 205 = system: COLO 205
HCT-116 = system: HCT-116
HOP-62 = system: HOP-62
IGROV-1 = system: IGROV-1
K562 = system: K562
KM12 = system: KM12
LOX IMVI = system: LOX IMVI
MOLT-4 = system: MOLT-4
OVCAR-3 = system: OVCAR-3
OVCAR-4 = system: OVCAR-4
SF-268 = system: SF-268
SK-MEL-28 = system: SK-MEL-28
SNB-19 = system: SNB-19
U-251 = system: U-251
UO-31 = system: UO-31

Measured: GI50

COCCOCOC(C)(C)[C@H](CCOC(C)=O)O[Si](c1ccccc1)(c1ccccc1)C(C)(C)C
inactive: 786-0 18 µM | A498 20.4 µM | A549 21.1 µM | CCRF-CEM 4.97 µM | COLO 205 3.44 µM | HCT-116 5.93 µM | HOP-62 23.3 µM | IGROV-1 23.6 µM | K562 5.75 µM | KM12 15.4 µM | LOX IMVI 14.1 µM | MOLT-4 3.75 µM | OVCAR-3 11 µM | OVCAR-4 15 µM | SF-268 34.6 µM | SK-MEL-28 56.5 µM | SNB-19 49 µM | U-251 12.3 µM | UO-31 13.5 µM

O=C(O)CCC(=O)Oc1ccc(O)c2c1CCCC2=O
inactive: 786-0 > 100 µM | A498 > 100 µM | A549 > 100 µM | CCRF-CEM > 100 µM | COLO 205 > 100 µM | HCT-116 > 100 µM | HOP-62 > 100 µM | IGROV-1 > 100 µM | K562 > 100 µM | KM12 > 100 µM | LOX IMVI > 100 µM | MOLT-4 > 100 µM | OVCAR-3 > 100 µM | OVCAR-4 > 100 µM | SF-268 > 100 µM | SK-MEL-28 > 100 µM | SNB-19 > 100 µM | U-251 > 100 µM | UO-31 > 100 µM

CC1(C)CC(=O)C(C(=O)Nc2cccs2)=C(O)C1
inactive: 786-0 49.9 µM | A498 28.8 µM | A549 32.1 µM | CCRF-CEM 23 µM | COLO 205 19.6 µM | HCT-116 29.7 µM | HOP-62 34.8 µM | IGROV-1 32.9 µM | K562 28.1 µM | KM12 38.1 µM | LOX IMVI 32.3 µM | MOLT-4 28 µM | OVCAR-3 29.4 µM | OVCAR-4 31.1 µM | SF-268 > 100 µM | SK-MEL-28 > 100 µM | SNB-19 31.1 µM | U-251 31.8 µM | UO-31 28.8 µM

O=CC12c3ccccc3C(c3ccccc31)C1C(=O)NC(=O)C12 (centres undefined)
inactive: 786-0 > 100 µM | A498 10.8 µM | A549 > 100 µM | CCRF-CEM 41.7 µM | COLO 205 > 100 µM | HCT-116 45.9 µM | HOP-62 56 µM | IGROV-1 37.2 µM | K562 66.8 µM | KM12 > 100 µM | LOX IMVI 50.1 µM | MOLT-4 97.3 µM | OVCAR-3 > 100 µM | OVCAR-4 > 100 µM | SF-268 > 100 µM | SK-MEL-28 > 100 µM | SNB-19 > 100 µM | U-251 > 100 µM | UO-31 44.7 µM

Cc1ccc(Nc2nc3c(s2)C(=O)c2ccccc2C3=O)c(C)c1
inactive: 786-0 17.5 µM | A498 34 µM | A549 16.6 µM | CCRF-CEM 4.13 µM | COLO 205 18.9 µM | HOP-62 16.5 µM | IGROV-1 16.4 µM | K562 10.9 µM | KM12 16 µM | LOX IMVI 13.3 µM | MOLT-4 3.94 µM | OVCAR-3 13.7 µM | OVCAR-4 12.2 µM | SF-268 11.1 µM | SK-MEL-28 16.8 µM | SNB-19 14.6 µM | U-251 18.9 µM | UO-31 14.3 µM

O=C(NCCCCCCNC(=O)OCCSCCn1cc(C(=O)NC(=O)OCc2ccccc2)c(=O)[nH]c1=O)OCCSCCn1cc(C(=O)NC(=O)OCc2ccccc2)c(=O)[nH]c1=O
inactive: 786-0 > 100 µM | A498 > 100 µM | A549 > 100 µM | CCRF-CEM > 100 µM | COLO 205 > 100 µM | HOP-62 > 100 µM | IGROV-1 > 100 µM | K562 > 100 µM | KM12 > 100 µM | LOX IMVI > 100 µM | MOLT-4 > 100 µM | OVCAR-3 > 100 µM | OVCAR-4 > 100 µM | SNB-19 > 100 µM | U-251 > 100 µM | UO-31 55.8 µM

Cc1ccc(-n2nc(C(OC3OC(CO)C(O)C(O)C3O)C(O)CO)c3nc4cc(C)c(C)cc4nc32)cc1 (centres undefined)
inactive: 786-0 > 100 µM | A498 > 100 µM | CCRF-CEM > 100 µM | HCT-116 > 100 µM | HOP-62 > 100 µM | K562 > 100 µM | KM12 > 100 µM | LOX IMVI > 100 µM | MOLT-4 > 100 µM | OVCAR-3 > 100 µM | OVCAR-4 99.1 µM | SF-268 > 100 µM | SK-MEL-28 > 100 µM | SNB-19 > 100 µM | U-251 > 100 µM | UO-31 > 100 µM

C[C@H]1CC[P+](Cc2ccccc2)(c2ccccc2)C1 (some centres undefined)
inactive: 786-0 > 100 µM | A498 > 100 µM | A549 > 100 µM | CCRF-CEM > 100 µM | COLO 205 38 µM | HCT-116 > 100 µM | HOP-62 > 100 µM | IGROV-1 64.7 µM | K562 > 100 µM | KM12 > 100 µM | LOX IMVI 71.4 µM | MOLT-4 > 100 µM | OVCAR-3 41.2 µM | OVCAR-4 > 100 µM | SK-MEL-28 84.7 µM | SNB-19 > 100 µM | U-251 36.7 µM | UO-31 > 100 µM

Reference: ChEMBL document CHEMBL1201862, “PubChem BioAssay data set” (2004)
